Results: ChEMBL document CHEMBL4028815, “Novel phosphonate analogs of sulforaphane: Synthesis, in vitro and in vivo anticancer activity” (Eur J Med Chem, 2017)

Assays:
LoVo [1] = assay: Cytotoxicity against human LoVo cells after 72 hrs by sulforhodamine B assay; assay type: functional, cell-based
[2] = Cytotoxicity against human LoVo/DX cells after 72 hrs by sulforhodamine B assay; assay type: functional, cell-based
MES-SA = assay: Cytotoxicity against human MESSA cells after 72 hrs by sulforhodamine B assay; assay type: functional, cell-based
[3] = Resistance index, ratio of IC50 for human MESSA/DX5 cells to IC50 for human MESSA cells; assay type: functional
MES-SA/Dx5 = assay: Cytotoxicity against human MESSA/DX5 cells after 72 hrs by sulforhodamine B assay; assay type: functional, cell-based; conditions: MES-SA/Dx5, 72 h
4T1 [4] = assay: Anti-tumor activity against mouse 4T1 cells implanted in BALB/c mdb mouse assessed as tumor growth inhibition at 100 umol/kg, ip administered five times weekly measured on day 29 post cell innoculum relative to control; assay type: functional; conditions: 4T1, ip, 696 h, read-out: TGI
Mus musculus [5] = assay: Toxicity in BALB/c mdb mouse implanted with mouse 4T1 cells assessed as serum AST level at 100 umol/kg, ip administered five times weekly measured at 29 day post cell innoculum (reference value: 136 +/- 10.3 U/L); assay type: organism-based; conditions: in vivo, 696 h
Mus musculus [6] = assay: Toxicity in BALB/c mdb mouse implanted with mouse 4T1 cells assessed as serum creatinine level at 100 umol/kg, ip administered five times weekly measured at 29 day post cell innoculum (reference value: 9.3 +/- 1.2 umol/L); assay type: organism-based; conditions: in vivo, 696 h
LoVo [7] = assay: Potency index, ratio of sulforaphane IC50 to compound IC50 for human LoVo cells; assay type: functional
Mus musculus [8] = assay: Toxicity in BALB/c mdb mouse implanted with mouse 4T1 cells assessed as WBC level at 100 umol/kg, ip administered five times weekly measured at 29 day post cell innoculum (reference value: 212.3 +/- 82.8 10^3/uL); assay type: organism-based; conditions: in vivo, 696 h
4T1 [9] = assay: Anti-tumor activity against mouse 4T1 cells implanted in BALB/c mdb mouse assessed as lung metastasis at 100 umol/kg, ip administered five times weekly measured at 29 days post cell innoculum (reference value: 56 +/- 25); assay type: functional
Mus musculus [10] = assay: Nephrotoxicity in BALB/c mdb mouse implanted with mouse 4T1 cells assessed as kidney weight at 100 umol/kg, ip administered five times weekly measured at 29 day post cell innoculum (reference value: 0.136 +/- 0.006 g); assay type: toxicity, organism-based; conditions: in vivo, 696 h
LoVo [11] = assay: Potency index, ratio of benzyl isothiocyanate IC50 to compound IC50 for human LoVo cells; assay type: functional
Mus musculus [12] = assay: Toxicity in BALB/c mdb mouse implanted with mouse 4T1 cells assessed as serum PLT level at 100 umol/kg, ip administered five times weekly measured at 29 day post cell innoculum (reference value: 972 +/- 157 10^3/uL); assay type: organism-based; conditions: in vivo, 696 h
Mus musculus [13] = assay: Toxicity in BALB/c mdb mouse implanted with mouse 4T1 cells assessed as hemoglobin level at 100 umol/kg, ip administered five times weekly measured at 29 day post cell innoculum (reference value: 15.1 +/- 1.5 g/dl); assay type: organism-based; conditions: in vivo, 696 h
Mus musculus [14] = assay: Toxicity in BALB/c mdb mouse implanted with mouse 4T1 cells assessed as spleen weight at 100 umol/kg, ip administered five times weekly measured at 29 day post cell innoculum (reference value: 0.603 +/- 0.133 g); assay type: organism-based; conditions: in vivo, 696 h
Mus musculus [15] = assay: Toxicity in BALB/c mdb mouse implanted with mouse 4T1 cells assessed as hematocrit at 100 umol/kg, ip administered five times weekly measured at 29 day post cell innoculum (reference value: 39.9 +/- 3.7 %); assay type: organism-based; conditions: in vivo, 696 h
4T1 [16] = assay: Anti-tumor activity against mouse 4T1 cells implanted in BALB/c mdb mouse assessed as tumor growth inhibition at 100 umol/kg, ip administered five times weekly measured on day 15 post cell innoculum relative to control; assay type: functional; conditions: 4T1, ip, 360 h, read-out: TGI
Mus musculus [17] = assay: Toxicity in BALB/c mdb mouse implanted with mouse 4T1 cells assessed as RBC level at 100 umol/kg, ip administered five times weekly measured at 29 day post cell innoculum (reference value: 8.6 +/- 0.9 10^6/uL); assay type: organism-based; conditions: in vivo, 696 h
Mus musculus [18] = assay: Toxicity in BALB/c mdb mouse implanted with mouse 4T1 cells assessed as body weight loss at 100 umol/kg, ip administered five times weekly measured 3 times weekly during compound dosing; assay type: organism-based; conditions: in vivo
Mus musculus [19] = assay: Toxicity in BALB/c mdb mouse implanted with mouse 4T1 cells assessed as serum urea level at 100 umol/kg, ip administered five times weekly measured at 29 day post cell innoculum (reference value: 3.8 +/- […]); assay type: organism-based; conditions: in vivo, 696 h
[20] = Resistance index, ratio of IC50 for human LoVo/DX cells to IC50 for human LoVo cells; assay type: functional
Mus musculus [21] = assay: Toxicity in BALB/c mdb mouse implanted with mouse 4T1 cells assessed as serum ALT level at 100 umol/kg, ip administered five times weekly measured at 29 day post cell innoculum (reference value: 23.8 +/- 2.2 U/L); assay type: organism-based; conditions: in vivo, 696 h
Mus musculus [22] = assay: Toxicity in BALB/c mdb mouse implanted with mouse 4T1 cells assessed as lung weight at 100 umol/kg, ip administered five times weekly measured at 29 day post cell innoculum (reference value: 0.2 +/- 0.018 g); assay type: organism-based; conditions: in vivo, 696 h
Mus musculus [23] = assay: Hepatotoxicity in BALB/c mdb mouse implanted with mouse 4T1 cells assessed as liver weight at 100 umol/kg, ip administered five times weekly measured at 29 day post cell innoculum (reference value: 1.2 +/- 0.13 g); assay type: toxicity, organism-based; conditions: in vivo, 696 h
[24] = Resistance index, ratio of IC50 for human HL60/MX2 cells to IC50 for human HL60 cells; assay type: functional
HL60/MX2 = assay: Cytotoxicity against human HL60/MX2 cells after 72 hrs by sulforhodamine B assay; assay type: functional, cell-based; conditions: HL60/MX2, 72 h
HL-60 = assay: Cytotoxicity against human HL60 cells after 72 hrs by sulforhodamine B assay; assay type: functional, cell-based; conditions: HL-60, 72 h

Structure (SMILES)	IC50 (LoVo [1])	IC50 [2]	further results
COP(=O)(CCCCN=C=S)OC	5.4 µM	6.5 µM	–
CC(C)(C)COP(=O)(CCCCCCN=C=S)OCC(C)(C)C	7.4 µM	11.2 µM	–
CC(C)(C)COP(=O)(CCCCCN=C=S)OCC(C)(C)C	8.9 µM	10.8 µM	–
COc1cccc2c1C(=O)c1c(O)c3c(c(O)c1C2=O)C[C@@](O)(C(=O)CO)C[C@@H]3O[C@H]1C[C@H](N)[C@H](O)[C@H](C)O1 [DOXORUBICIN]	0.3 µM	12.2 µM	IC50 (MES-SA): 0.1 µM; Ratio IC50 [3]: 100; IC50 (MES-SA/Dx5): 13.9 µM
CC(C)[C@@H]1CC[C@@H](C)C[C@H]1OP(=O)(CCCCN=C=S)O[C@@H]1C[C@H](C)CC[C@H]1C(C)C	5.1 µM	5.8 µM	–
CC(C)COP(=O)(CCCCN=C=S)OCC(C)C	3.3 µM	10.4 µM	–
O=P(CCN=C=S)(Oc1ccccc1)Oc1ccccc1	10.5 µM	11.4 µM	–
CCOP(=O)(CCN=C=S)OCC	4.5 µM	6.1 µM	–
CCOP(=O)(CCCCCCCCCCN=C=S)OCC	10 µM	13.1 µM	–
CC(C)COP(=O)(CCCCCCN=C=S)OCC(C)C	2.7 µM	9.2 µM	inhibition in vivo at 100 µmol/kg (4T1 [4]): 14.3%; Activity (Mus musculus [5]): 153.6 U/L; Activity (Mus musculus [6]): 8.2 µmol/L; Ratio IC50 (LoVo [7]): 10; Activity (Mus musculus [8]): 311.2 ×10³ /uL; Activity (4T1 [9]): 58; Activity (Mus musculus [10]): 0.127 g; Ratio IC50 (LoVo [11]): 5; Activity (Mus musculus [12]): 831 ×10³ /uL; Activity (Mus musculus [13]): 19.2 g/dL; Activity (Mus musculus [14]): 0.578 g; Activity (Mus musculus [15]): 53%; inhibition in vivo at 100 µmol/kg (4T1 [16]): 31%; Activity (Mus musculus [17]): 10.8 ×10⁶ /uL; Activity (Mus musculus [18]): <= 10%; Activity (Mus musculus [19]): 5.2 mmol/L; Ratio IC50 [20]: 3.4; Activity (Mus musculus [21]): 33.1 U/L; Activity (Mus musculus [22]): 0.199 g; Activity (Mus musculus [23]): 1.25 g
CC(C)(C)COP(=O)(CCCN=C=S)OCC(C)(C)C	10.2 µM	14 µM	–
CCOP(=O)(CCCN=C=S)OCC	2.9 µM	3 µM	Ratio IC50 (LoVo [7]): 10; Ratio IC50 (LoVo [11]): 5
O=P(CCCCCCN=C=S)(OCC(F)(F)F)OCC(F)(F)F	4.2 µM	8.8 µM	–
O=C1c2c(O)ccc(O)c2C(=O)c2c(NCCNCCO)ccc(NCCNCCO)c21 [MITOXANTRONE]	–	–	Ratio IC50 [24]: 37; IC50 (HL60/MX2): 0.148 µM; IC50 (HL-60): 0.004 µM
CC(C)OP(=O)(CCCCN=C=S)OC(C)C	2.5 µM	5 µM	Ratio IC50 (LoVo [7]): 10; Ratio IC50 (LoVo [11]): 5
CC(C)OP(=O)(CCCCCN=C=S)OC(C)C	2.6 µM	7.9 µM	Ratio IC50 (LoVo [7]): 10; Ratio IC50 (LoVo [11]): 5
CCC(C)OP(=O)(CCCCN=C=S)OC(C)CC (stereo unspecified)	4.3 µM	3.6 µM	–
O=P(CCCCN=C=S)(OCc1ccccc1)OCc1ccccc1	3.8 µM	8.4 µM	–
CC(C)(C)COP(=O)(CCCCN=C=S)OCC(C)(C)C	10.2 µM	10.6 µM	–
CC(C)COP(=O)(CCCN=C=S)OCC(C)C	2.4 µM	5.6 µM	Ratio IC50 (LoVo [7]): 10; Ratio IC50 (LoVo [11]): 5
O=P(CCCCCN=C=S)(OCC(F)(F)F)OCC(F)(F)F	5.4 µM	10.5 µM	–
CC[C@H](C)OP(=O)(CCCCN=C=S)O[C@@H](C)CC	4.2 µM	4.5 µM	–
